# Measured values reported in patent US11564964B2, “Compositions and methods for the treatment of coronavirus infection” (priority 2021, dated 2023).
# How the values were obtained:
# [1] = test system: SARS-CoV-2 (hCoV-19/Egypt/NRC-3/2020 isolate); details: for in vitro SARS-CoV-2 testing (activity in words): SARS CoV-2 infected Vero E6 cells; for activity against SARS CoV-2 (in words): (100 μg/mL)
# [2] = MTT cytotoxicity assay; format: cell-based; details: African green monkey, Vero E6 cells, read-out: cytotoxicity IC50 against Vero E6 cells
# Method: Vero-E6 cells with the previously reported (MTT) method^34 were used to test the cytotoxic activity of the test compounds and extracts. In brief, the cells were plated in 96-well plates and incubated for 24 h at 37° C. in 5% CO2 (100 μL/well at a density of 3×10^5 cells/mL). The cells were then treated with different concentrations of extracts/the tested compounds in triplicates. The supernatant was discarded after another 24 h, and cell monolayers were washed three times with sterile 1× PBS. MTT solution was added to each well and then incubated at 37° C. for 4 h. The produced formazan crystals were dissolved with 200 μL of acidified isopropanol (0.04 M HCl in absolute isopropanol=0.073 mL HCL in 50 mL isopropanol). Thereafter, the absorbance of formazan solutions was measured at λmax 540 nm using a multi-well plate reader. The following equation was applied to calculate the percentage of cytotoxicity compared to the untreated cells:
# [formula] The produced plot of % cytotoxicity versus sample concentrations was then used to calculate the IC50s. Viral Inhibitory Concentration 50 (IC50) Determination
# [3] = test system: SARS-CoV-2 (hCoV-19/Egypt/NRC-3/2020 isolate); assay: microbe, parasite or virus in culture; details: Severe acute respiratory syndrome coronavirus 2, Vero C1008, read-out: IC50, inhibition of SARS CoV-2 viral replication
# [4] = test system: SARS-CoV-2 mRNA; assay: Quantitative real time measurement of SARS-CoV-2 mRNA expression (TaqMan RT-PCR) in infected Vero E6 cells; format: cell-based; details: different concentrations, 24 h and 48 h post treatment, normalized to infected untreated cells
# Method: The RNA extraction of expressed SARS-CoV-2 mRNA in infected treated and untreated cell monolayers was performed using QlAamp Viral RNA Mini Kit according to manufacturer instructions. To assess the viral mRNA expression in infected/treated and infected/untreated Vero E6 cells, TaqMan Real-time RT-PCR assay was performed. Briefly, 100 ng of extracted RNA were mixed with TaqMan primers to quantify SARS-CoV-2 mRNA (targeting […]: HKU-ORF1b-nsp14F: 5′-[…]-3′ (SEQ ID NO: 1), HKU-ORF1b-nsp141P Taqman Probe: 5′-FAM-[…]-TAMRA-3′ (SEQ ID NO: 2), HKU-ORF1b-nsp14R: 5′-[…]-3′ (SEQ ID NO: 3) together with the other components of Verso 1-step RT-qPCR Kit plus Rox (Invitrogen) in recommended volumes (up to 50 μl reaction) and thermal protocol conditions.
# To validate our in silico-derived hits, we evaluated their antiviral activity against the clinical SARS-CoV-2 viral isolate in Vero E6 cells. […] Afterwards, the SARS CoV-2 infected Vero E6 cells were incubated with each of the tested compounds at different concentrations. The antiviral activity was then evaluated by determining the viral copy numbers in the cell supernatant via qRT-PCR. […] The poor antiviral activity of other metabolites (>100 μg/mL) might be attributed to their high polarity that could hinder the permeability across the cell membrane^39.
structure (smiles),measurement,setting,value
O=c1cc(-c2ccc(O)cc2)oc2cc(O[C@@H]3O[C@H](CO)[C@@H](O)[C@H](O)[C@H]3O)cc(O)c12 [apigenin 7-O-glucoside],in vitro SARS-CoV-2 testing (activity in words),[1],inactive
COc1ccc(C[C@H]2COC(=O)[C@@H]2Cc2ccc(O[C@@H]3O[C@H](CO)[C@@H](O)[C@H](O)[C@H]3O)c(OC)c2)cc1OC [arctiin],in vitro SARS-CoV-2 testing (activity in words),[1],inactive
same,IC50 at 24 h,[2],> 50 µg/mL
O=c1c(O[C@@H]2O[C@H](CO)[C@@H](O)[C@H](O)[C@H]2O)c(-c2ccc(O)cc2)oc2cc(O)cc(O)c12 [astragalin],in vitro SARS-CoV-2 testing (activity in words),[1],inactive
same,IC50 at 24 h,[2],> 50 µg/mL
C=C1C(=O)O[C@@H]2/C=C(\CO)CC/C=C(\C)C[C@H](OC(=O)C(=C)[C@@H](O)CO)[C@@H]12 [cnicin],Si=CC50/IC50,"[1]; safety profile, Vero E6 / SARS CoV-2",70.3
same,IC50,[3],1.18 µg/mL
same,inhibitory effect on the viral mRNA,[4],significant viral mRNA inhibition
O=c1cc(-c2ccc(O)c(O)c2)oc2cc(O)cc(O)c12 [luteolin],activity against SARS CoV-2 (in words),[1],inactive
COc1cc(C[C@H]2COC(=O)[C@]2(O)Cc2ccc(O[C@@H]3O[C@H](CO)[C@@H](O)[C@H](O)[C@H]3O)c(OC)c2)ccc1O [nortracheloside],in vitro SARS-CoV-2 testing (activity in words),[1],inactive
CC[C@H](CC[C@@H](C)[C@H]1CC[C@H]2[C@@H]3CC=C4C[C@@H](O[C@@H]5O[C@H](CO)[C@@H](O)[C@H](O)[C@H]5O)CC[C@]4(C)[C@H]3CC[C@]12C)C(C)C [sitogluside],activity against SARS CoV-2 (in words),[1],inactive
